Test systems include 786-0 renal; A498 renal; A549 NSCLC; CAKI-1 renal; HL-60(TB) leukemia; MDA-MB-435; SK-MEL-5 melanoma; SW-620 colon; T-47D breast; UACC-257 melanoma.
Holding throughout (test): NCI anticancer screen, dose series, 48 h

Where “and” joins values, the source holds several entries; their conditions need not be identical. Equal entries are not always repeated.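 Five concentrations, 48 hours, 96-well plates. Abbreviation: GI50, concentration required for 50% inhibition of growth. The concentration for full growth arrest is given as TGI.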

As for `O=C(NC(=O)c1c(F)cccc1F)Nc1cccc(Oc2ncc(Cl)cn2)c1`, the TGI is above 100 µM in the experiment on 786-0 renal; above 100 µM in the experiment with A498 renal; above 100 µM in the experiment with A549 NSCLC; above 100 µM in the experiment with CAKI-1 renal; above 100 µM with HL-60(TB) leukemia; above 22.8 µM with MDA-MB-435. The TGI in the experiment with SK-MEL-5 melanoma, in the experiment on SW-620 colon, with T-47D breast and in the experiment with UACC-257 melanoma was above 100 µM each time.

With `CNC(=O)OCc1nc(SSC(C)(C)C)n(C)c1COC(=O)NC`, the TGI in the experiment with 786-0 renal amounted to 9.12 µM; in the experiment with A498 renal, 20.4 µM; in the experiment with A549 NSCLC, 28 µM; in the experiment with CAKI-1 renal, 3.94 µM; with HL-60(TB) leukemia, 2.66 µM; in the experiment on MDA-MB-435 it was 16 µM. Moreover, the TGI stood at 16.5 µM in the experiment on SK-MEL-5 melanoma, 3.67 µM in the experiment on SW-620 colon, 7.4 µM in the experiment on T-47D breast and 7.64 µM in the experiment with UACC-257 melanoma.

For `CCN(CC)CCCC(CCl)Nc1ccnc2cc(Cl)ccc12` (stereo not given), the GI50 with 786-0 renal is 14.8 µM and 18 µM; in the experiment with A498 renal, 24.2 µM and 22 µM; with A549 NSCLC, 20 µM and 27 µM; with CAKI-1 renal, 22.1 µM and 16.2 µM; with HL-60(TB) leukemia, 15.5 µM and 7.99 µM; in the experiment on MDA-MB-435, 14.6 µM and 6.64 µM. Further, the GI50 with SK-MEL-5 melanoma was 10.3 µM and 13 µM; in the experiment on SW-620 colon it was 22.5 µM and 33.5 µM; in the experiment on T-47D breast, 49.2 µM and 34.1 µM; in the experiment with UACC-257 melanoma, 3.78 µM and 14.6 µM. Besides, the TGI in the experiment on 786-0 renal is 32.8 µM and 62 µM; in the experiment with A498 renal, 64.3 µM and 51.1 µM; with A549 NSCLC, 55 µM and > 100 µM; with CAKI-1 renal it was 47.5 µM and 44.8 µM; with HL-60(TB) leukemia it was 72.8 µM and > 31.6 µM; in the experiment with MDA-MB-435, 28.3 µM and 19.3 µM. The TGI with SK-MEL-5 melanoma is 23.5 µM and 28.6 µM; with SW-620 colon, 54.4 µM and > 100 µM; with T-47D breast it was above 100 µM; in the experiment on UACC-257 melanoma, 15.3 µM and 31.1 µM.

As for `Oc1ccc2ccccc2c1N=Nc1cccc2ccccc12`, the TGI in the experiment on 786-0 renal, in the experiment on A498 renal, in the experiment with A549 NSCLC, with CAKI-1 renal, with HL-60(TB) leukemia and in the experiment on MDA-MB-435 was above 100 µM in each case. In addition, the TGI with SK-MEL-5 melanoma, in the experiment with SW-620 colon, in the experiment with T-47D breast and in the experiment with UACC-257 melanoma was above 100 µM each time.

In the case of `CC(=O)OC1OC([C@H]2c3cccc(O)c3C(=O)c3c(O)cc(C)cc32)C(O)C(O)C1O` (stereo not given in full), the GI50 in the experiment with 786-0 renal is 0.0334 µM; in the experiment on A498 renal, 0.105 µM; in the experiment on A549 NSCLC, 0.0479 µM; in the experiment with CAKI-1 renal, 0.0773 µM; with HL-60(TB) leukemia, 0.0157 µM; with MDA-MB-435 it was 0.0817 µM. Moreover, the figures for the GI50 with SW-620 colon, with T-47D breast and in the experiment with UACC-257 melanoma were 0.112 µM, 0.0319 µM and below 0.0139 µM, respectively. Besides, the TGI was 1.99 µM in the experiment with 786-0 renal; 0.589 µM in the experiment on A498 renal; 15.1 µM in the experiment with A549 NSCLC; 0.544 µM in the experiment with CAKI-1 renal; 0.0472 µM in the experiment with HL-60(TB) leukemia; 2.72 µM with MDA-MB-435. Moreover, the results for the TGI with SW-620 colon and in the experiment with T-47D breast were 14.1 µM and above 41.1 µM, respectively.

As for `N[C@H](C(=O)O)[C@@H]1CC(Cl)=NO1`, the TGI with 786-0 renal is above 1000 µM; in the experiment with A498 renal it was above 887 µM; with A549 NSCLC, 678 µM; with CAKI-1 renal, 160 µM; in the experiment on MDA-MB-435, above 645 µM; with SK-MEL-5 melanoma, 493 µM. Further, the TGI in the experiment on SW-620 colon, in the experiment on T-47D breast and in the experiment on UACC-257 melanoma was above 1000 µM in each case. The GI50 is 45.5 µM in the experiment with A498 renal; 6.06 µM in the experiment with A549 NSCLC; 23.9 µM in the experiment with CAKI-1 renal; 4.89 µM with HL-60(TB) leukemia; 25.3 µM in the experiment with MDA-MB-435; 8.51 µM in the experiment with SK-MEL-5 melanoma. The GI50 in the experiment on SW-620 colon was 7.48 µM; with UACC-257 melanoma, 84.8 µM.

As for `CSC(SC)(C(=O)O)c1cc(-c2c(Cl)cccc2Cl)no1`, the TGI is above 100 µM in the experiment on 786-0 renal; above 100 µM in the experiment with A549 NSCLC; above 100 µM with CAKI-1 renal; above 100 µM in the experiment on MDA-MB-435; 85.8 µM with SK-MEL-5 melanoma; above 100 µM in the experiment on SW-620 colon. For the same compound, the TGI in the experiment with T-47D breast and in the experiment with UACC-257 melanoma was above 100 µM each time.

On to `CN(C)Cc1cc(C(F)(F)F)ccc1C(O)(c1ccccc1)c1ccccc1`, for which the TGI in the experiment with 786-0 renal worked out at 27.7 µM; with A498 renal it was 24.7 µM; with A549 NSCLC, 29.5 µM; in the experiment with CAKI-1 renal, 31.2 µM; with HL-60(TB) leukemia it was 24.7 µM; in the experiment with MDA-MB-435, 58 µM. For the same compound, the TGI with SK-MEL-5 melanoma stood at 27.3 µM; in the experiment with SW-620 colon it was 41 µM; with T-47D breast, 47.3 µM; with UACC-257 melanoma it was 24 µM.

As to `O=C(Oc1ccc[nH]c1=O)c1cc([N+](=O)[O-])cc([N+](=O)[O-])c1`, the GI50 with 786-0 renal is above 100 µM; in the experiment on A498 renal it was above 100 µM; in the experiment on A549 NSCLC it was above 100 µM; in the experiment with CAKI-1 renal it was 35.7 µM; in the experiment on HL-60(TB) leukemia, 53.6 µM; in the experiment on MDA-MB-435, 51.3 µM. Besides, the GI50 in the experiment on SK-MEL-5 melanoma is 34.3 µM; in the experiment with SW-620 colon, 99 µM; in the experiment with T-47D breast, 73.2 µM; with UACC-257 melanoma, above 100 µM. Also, the TGI in the experiment with 786-0 renal, in the experiment with A498 renal, with A549 NSCLC, with CAKI-1 renal, in the experiment on HL-60(TB) leukemia and in the experiment on MDA-MB-435 was above 100 µM each time. Besides, the TGI in the experiment on SK-MEL-5 melanoma, in the experiment on SW-620 colon, in the experiment with T-47D breast and with UACC-257 melanoma was above 100 µM throughout.

For `Cn1c(Cl)c(/C=C2/C(=O)Nc3ccccc32)c2ccccc21`, the GI50 with 786-0 renal is 1.32 µM; in the experiment with A549 NSCLC it was 6.58 µM; with CAKI-1 renal it was 0.603 µM; with HL-60(TB) leukemia, 0.14 µM; with MDA-MB-435, below 0.0438 µM; in the experiment on SK-MEL-5 melanoma, 0.0964 µM. Further, the GI50 was 0.299 µM in the experiment with SW-620 colon, 0.724 µM with T-47D breast and 10.7 µM in the experiment with UACC-257 melanoma. Moreover, the TGI in the experiment on 786-0 renal was 20.5 µM; in the experiment with A549 NSCLC, above 63 µM; in the experiment with CAKI-1 renal, 17.9 µM; with HL-60(TB) leukemia it was 1.92 µM; in the experiment with MDA-MB-435 it was 0.152 µM; in the experiment on SK-MEL-5 melanoma, 1.23 µM. Also, the TGI in the experiment on SW-620 colon was 14.7 µM; with T-47D breast it was 23.9 µM; with UACC-257 melanoma it was 37.8 µM.

Source of the values: PubChem BioAssay (NCI).
